Legend:
Test in all cases: combination Emax (second highest fraction inhibited in the dose matrix, 72 h); higher = more inhibition; extreme values may be limits of the assay
8-MG-BA (Glioblastoma) = test system: 8-MG-BA (Glioblastoma)
Procedure, shortened: (§1)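 Bliss excess equals the observed combination effect minus the expected value EA + EB − EA·EB, where EA and EB are the effects of each agent alone. Combination Emax is the second-highest inhibition within the matrix. Inhibition was scaled from CellTiter-Glo 2.0 luminescence, with 0 set by vehicle wells and 1 by blank wells, after 72 hours of two-drug dosing of cells plated in 1536-well plates.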

[1] = test system: A3-KAW (B-Cell Non-Hodgkin's Lymphoma)
Procedure, shortened: as §1

A498 (Kidney Carcinoma) = test system: A498 (Kidney Carcinoma)
Procedure, shortened: as §1

[2] = test system: BICR22 (Oral Cavity Carcinoma)
Procedure, shortened: as §1

[3] = test system: CAL-29 (Bladder Carcinoma)
Procedure, shortened: as §1

CAS-1 (Glioblastoma) = test system: CAS-1 (Glioblastoma)
Procedure, shortened: as §1

[4] = test system: COLO-320-HSR (Colorectal Carcinoma)
Procedure, shortened: as §1

[5] = test system: COR-L311 (Small Cell Lung Carcinoma)
Procedure, shortened: as §1

[6] = test system: HCC1954 (Breast Carcinoma)
Procedure, shortened: as §1

IGR-37 (Melanoma) = test system: IGR-37 (Melanoma)
Procedure, shortened: as §1

[7] = test system: JSC-1 (B-Cell Non-Hodgkin's Lymphoma)
Procedure, shortened: as §1

[8] = test system: KARPAS-422 (B-Cell Non-Hodgkin's Lymphoma)
Procedure, shortened: as §1

[9] = test system: NCI-H1581 (Non-Small Cell Lung Carcinoma)
Procedure, shortened: as §1

[10] = test system: NCI-H1650 (Lung Adenocarcinoma)
Procedure, shortened: as §1

[11] = test system: NCI-H1666 (Lung Adenocarcinoma)
Procedure, shortened: as §1

[12] = test system: NCI-H2066 (Squamous Cell Lung Carcinoma)
Procedure, shortened: as §1

[13] = test system: ONS-76 (Other Solid Carcinomas)
Procedure, shortened: as §1

PA-1 (Ovarian Carcinoma) = test system: PA-1 (Ovarian Carcinoma)
Procedure, shortened: as §1

[14] = test system: SISO (Cervical Carcinoma)
Procedure, shortened: as §1

[15] = test system: TT (Thyroid Gland Carcinoma)
Procedure, shortened: as §1

Row | Compound | combination Emax (8-MG-BA (Glioblastoma)) | combination Emax [1] | combination Emax (A498 (Kidney Carcinoma)) | combination Emax [2] | combination Emax [3] | combination Emax (CAS-1 (Glioblastoma)) | combination Emax [4] | combination Emax [5] | combination Emax [6] | combination Emax (IGR-37 (Melanoma)) | combination Emax [7] | combination Emax [8] | combination Emax [9] | combination Emax [10] | combination Emax [11] | combination Emax [12] | combination Emax [13] | combination Emax (PA-1 (Ovarian Carcinoma)) | combination Emax [14] | combination Emax [15]
1 | Cc1c2c(nn1C)CSCc1cc(n(C)n1)CSc1cc(c3ccccc3c1)OCCCc1c(C(=O)O)n(C)c3c-2c(Cl)ccc13 [AZD5991] + Cn1cnc2c(F)c(Nc3ccc(Br)cc3Cl)c(C(=O)NOCCO)cc21 [Selumetinib] (first compound max 1 µM, 7x7, partner max 3 µM) | 0.739 | 1 | 0.611 | 0.959 | 0.677 | 0.286 | 0.801 | 0.247 | 0.982 | 0.996 | 1 | 0.998 | 0.991 | 0.16 | 0.736 | 0.258 | 0.631 | 0.865 | 0.173 | 0.339
2 | C[C@@H]1COCCN1c1cc(C2([S@](C)(=N)=O)CC2)nc(-c2ccnc3[nH]ccc23)n1 [AZD6738] + O=C(c1cc(Cc2n[nH]c(=O)c3ccccc23)ccc1F)N1CCN(C(=O)C2CC2)CC1 [Olaparib] (first compound max 10 µM, 7x7, partner max 10 µM) | 0.85 | 0.984 | 0.636 | 0.711 | 0.71 | 0.48 | 0.475 | 0.509 | 0.353 | 0.738 | 0.822 | 0.556 | 0.528 | 0.349 | 0.331 | 0.388 | 0.894 | 0.768 | 0.595 | 0.419
3 | Cc1cc2ncnn2cc1Nc1ncc2c(n1)n(C1CCOCC1)c(=O)n2C [AZD7648] + C=CCn1c(=O)c2cnc(Nc3ccc(N4CCN(C)CC4)cc3)nc2n1-c1cccc(C(C)(C)O)n1 [AZD1775] (first compound max 10 µM, partner max 1 µM) | 0.648 | 0.896 | 0.521 | 0.643 | 0.618 | 0.566 | 0.744 | 0.571 | 0.483 | 0.674 | 0.931 | 0.784 | 0.379 | 0.417 | 0.357 | 0.339 | 0.589 | 0.706 | 0.577 | 0.475
4 | Cc1cc2ncnn2cc1Nc1ncc2c(n1)n(C1CCOCC1)c(=O)n2C [AZD7648] + CCN(CCO)CCCOc1ccc2c(Nc3cc(CC(=O)Nc4cccc(F)c4)[nH]n3)ncnc2c1 [AZD2811] (first compound max 10 µM, 7x7, partner max 1 µM) | 0.358 | 0.608 | 0.439 | 0.605 | 0.301 | 0.427 | 0.209 | 0.829 | 0.342 | 0.285 | 0.486 | 0.556 | 0.499 | 0.287 | 0.381 | 0.356 | 0.398 | 0.315 | 0.265 | 0.611
5 | Cc1cc2ncnn2cc1Nc1ncc2c(n1)n(C1CCOCC1)c(=O)n2C [AZD7648] + CN(C)CCCOc1ccc(-c2ccc3ncc4c(c3c2)n(C2CCOCC2)c(=O)n4C)cn1 [AZD0156] (first compound max 10 µM, 7x7, partner max 1 µM) | 0.31 | 0.597 | 0.401 | 0.384 | 0.218 | 0.314 | 0.27 | 0.256 | 0.307 | 0.263 | 0.303 | 0.479 | 0.369 | 0.25 | 0.431 | 0.321 | 0.26 | 0.239 | 0.16 | 0.41
6 | Cc1cc2ncnn2cc1Nc1ncc2c(n1)n(C1CCOCC1)c(=O)n2C [AZD7648] + C[C@@H]1COCCN1C2=NC(=NC(=C2)C3(CC3)[S@](=N)(=O)C)C4=C5C=CNC5=NC=C4 [AZD6738] (first compound max 10 µM, 7x7, partner max 10 µM) | 0.769 | 0.969 | 0.585 | 0.761 | 0.598 | 0.609 | 0.616 | 0.214 | 0.568 | 0.761 | 0.896 | 0.639 | 0.471 | 0.324 | 0.354 | 0.379 | 0.825 | 0.75 | 0.505 | 0.604
7 | Cc1cc2ncnn2cc1Nc1ncc2c(n1)n(C1CCOCC1)c(=O)n2C [AZD7648] + O=C(c1cc(Cc2n[nH]c(=O)c3ccccc23)ccc1F)N1CCN(C(=O)C2CC2)CC1 [Olaparib] (first compound max 10 µM, 7x7, partner max 10 µM) | 0.329 | 0.656 | 0.441 | 0.141 | 0.384 | 0.271 | 0.073 | 0.456 | 0.161 | 0.109 | 0.0503 | 0.55 | 0.168 | 0.0772 | 0.0994 | 0.295 | 0.246 | 0.374 | 0.207 | 0.161
8 | NC1(C(=O)N[C@@H](CCO)c2ccc(Cl)cc2)CCN(c2ncnc3[nH]ccc23)CC1 [Capivasertib] + CC(=O)c1c(C)c2cnc(Nc3ccc(N4CCNCC4)cn3)nc2n(C2CCCC2)c1=O [Palbociclib] (first compound max 10 µM, 7x7, partner max 10 µM) | 0.597 | 0.846 | 0.629 | 0.329 | 0.479 | 0.635 | 0.263 | 0.68 | 0.74 | 0.396 | 0.669 | 0.771 | 0.373 | 0.351 | 0.382 | 0.507 | 0.557 | 0.909 | 0.201 | 0.447
9 | NC1(C(=O)N[C@@H](CCO)c2ccc(Cl)cc2)CCN(c2ncnc3[nH]ccc23)CC1 [Capivasertib] + CC(C)n1c(=O)n(C)c2cnc3cc(F)c(-c4ccc(OCCCN5CCCCC5)nc4)cc3c21 [AZD1390] (first compound max 10 µM, 7x7, partner max 0.3 µM) | 0.387 | 0.49 | 0.542 | 0.312 | 0.337 | 0.543 | 0.172 | 0.685 | 0.752 | 0.447 | 0.364 | 0.507 | 0.129 | 0.317 | 0.31 | 0.553 | 0.386 | 0.753 | 0.269 | 0.425
10 | NC1(C(=O)N[C@@H](CCO)c2ccc(Cl)cc2)CCN(c2ncnc3[nH]ccc23)CC1 [Capivasertib] + CCN(CCO)CCCOc1ccc2c(Nc3cc(CC(=O)Nc4cccc(F)c4)[nH]n3)ncnc2c1 [AZD2811] (first compound max 10 µM, 7x7, partner max 1 µM) | 0.508 | 0.674 | 0.586 | 0.562 | 0.452 | 0.635 | 0.174 | 0.915 | 0.87 | 0.371 | 0.69 | 0.531 | 0.469 | 0.351 | 0.388 | 0.534 | 0.589 | 0.918 | 0.477 | 0.544
11 | NC1(C(=O)N[C@@H](CCO)c2ccc(Cl)cc2)CCN(c2ncnc3[nH]ccc23)CC1 [Capivasertib] + COc1nnc2ccc(N3CCC(c4ccc(OCCN5CCN(C)C(=O)[C@H]5C)cc4)CC3)nn12 [AZD5153] (first compound max 10 µM, 7x7, partner max 1 µM) | 0.797 | 1 | 0.824 | 0.631 | 0.723 | 0.735 | 0.242 | 1 | 0.922 | 0.662 | 0.793 | 0.68 | 0.462 | 0.442 | 0.385 | 0.77 | 0.627 | 0.998 | 0.421 | 0.695
12 | NC1(C(=O)N[C@@H](CCO)c2ccc(Cl)cc2)CCN(c2ncnc3[nH]ccc23)CC1 [Capivasertib] + C[C@@H]1COCCN1C2=NC(=NC(=C2)C3(CC3)[S@](=N)(=O)C)C4=C5C=CNC5=NC=C4 [AZD6738] (first compound max 10 µM, 7x7, partner max 10 µM) | 0.873 | 0.992 | 0.694 | 0.812 | 0.716 | 0.735 | 0.507 | 0.787 | 0.859 | 0.733 | 0.95 | 0.566 | 0.235 | 0.541 | 0.44 | 0.626 | 0.852 | 0.964 | 0.586 | 0.484
13 | NC1(C(=O)N[C@@H](CCO)c2ccc(Cl)cc2)CCN(c2ncnc3[nH]ccc23)CC1 [Capivasertib] + Cn1cnc2c(F)c(Nc3ccc(Br)cc3Cl)c(C(=O)NOCCO)cc21 [Selumetinib] (first compound max 10 µM, 7x7, partner max 10 µM) | 0.592 | 0.698 | 0.799 | 0.949 | 0.66 | 0.682 | 0.214 | 0.625 | 0.805 | 0.897 | 0.724 | 0.58 | 0.513 | 0.358 | 0.623 | 0.685 | 0.873 | 0.884 | 0.269 | 0.587
